From patent US10441681B2, “Materials and methods for nerve grafting” (University of Florida Research Foundation, Inc., priority 2001, dated 2019)

What was measured:
CSPG [1] = assay: CSPG-neoepitope immunolabeling of injured sciatic nerve after in vivo chondroitinase injection; parameters: species or system rat; details: single injection 1 U in 2 μl, 2 mm distal to injury; 4 days (transection) or 2 days (crush)
Procedure: All surgical procedures were performed according to Institutional Animal Care and Use Committee (IACUC) approved protocols. Young adult SPRAGUE DAWLEY rats (HARLAN Indianapolis, Ind.) were deeply anesthetized with xylazine (15 mg/kg, i.m.) followed by ketamine-HCl (110 mg/kg, i.p.). Six animals received bilateral nerve crush injuries. Sciatic nerves were exposed and then crushed with firm pressure for thirty seconds with a DUMONT #5 forceps at a site 4 mm distal to the tendon of the internal obdurator. The crush site was marked with an epineurial suture. In a separate set of experiments, eight rats received bilateral sciatic nerve transection injuries using serrated scissors. The proximal and distal stumps were […] by epineurial neurorrhaphy using 9-0 ETHILON sutures. Fibrin glue (fibrinogen and thrombin) was then applied to stabilize the union. In both injury models, the right sciatic nerves were injected 2-mm distal to the injury with chondroitinase ABC (1 U in 2 μl) (high-purity, protease-free; SIGMA CHEMICAL CO., St. Louis, Miss.). Left sciatic nerves (with the same injury as the right side) were injected with vehicle alone (0.1% bovine serum albumin in PBS). Muscle incisions were sutured and the skin closed with metal clips. […]
Axonal regeneration was assessed by GAP-43 immunofluorescence and digital image analysis. […]

chick DRG neurons = assay: Cryoculture assay using human nerve segments; format: cell-based; details: 24 h
Procedure: Cryoculture is a neurite outgrowth assay in which neurons are cultured directly on fresh/frozen nerve sections and was performed as described previously (Ferguson T A et al. [2000] Mol Cell Neurosci, 16:157-167). Briefly, chondroitinase- and vehicle-treated nerve segments were sectioned at 20 μm, mounted on sterile, aminopropyltriethoxysilane (APTS)-coated coverslips and stored at −20° C. until used. Where indicated, sections were treated with chondroitinase ABC (0.1 unit/ml) or vehicle (50 mM Tris-HCl, pH 8.0), containing 50 mM NaCl) for 2 h at 37° C. Purified dorsal root ganglionic (DRG) neurons from day 8 chick embryos were seeded directly on the nerve sections in a defined N2 medium (Bottenstein J E et al. [1980] Exp Cell Res 125:183-190) containing 10 ng/ml nerve growth factor. Cryoculture assays were terminated after 24 h of incubation by fixation with 100% methanol. Neuritic growth by DRG neurons was accessed by GAP-43 immunofluorescent labeling. Epifluorescent photomicrographs were acquired as described for tissue sections. Neurite lengths were measured directly using IMAGE-PRO PLUS software (MEDIA CYBERNETICS, Silver Springs, Md.). At least 250 neurons with neurites greater than one cell body (˜15 μm) were scored for each condition in each experiment.
Many of the experiments described in the examples above performed using rat nerves also have been replicated using human nerve. […]

CSPG [2] = assay: CSPG neoepitope immunostaining of human nerve segments treated with chondroitinase
Procedure: Axonal regeneration was assessed by GAP-43 immunofluorescence and digital image analysis. Tissue sections mounted on slides were washed with PBS and then treated with 0.5% Triton X-100 in PBS for 10 min. The sections were treated with blocking buffer (10% serum in PBS+0.1% Triton X-100) and then incubated overnight at 4° C. with primary antibodies (diluted in blocking buffer). Bound antibodies were labeled with swine anti-rabbit immunoglobulins (DAKO CORPORATION, Carpinteria, Calif.) or goat anti-mouse immunoglobulins (Sigma) FITC-conjugated secondary antibodies for 1 h at room temperature in darkness. The anti-mouse secondary antibody was preadsorbed with rat serum prior to use. The sections were washed, postfixed with 4% paraformaldehyde in PBS, rinsed, and coverslipped in fluorescent mounting media. Affinity-purified rabbit anti-GAP-43 peptide antibody was produced using known methods (Ferguson T A et al. [2000] Mol Cell Neurosci, 16:157-167) and was used at 2 μg/ml. Polyclonal antibody 1918 (CHEMICON INTERNATIONAL, Temecula, Calif.) (1:1000) binds only to the unsaturated disaccharide unit that remains attached to the linkage region of CSPG core protein exposed by digestion with chondroitinase ABC (Bertolotto A et al. [1986] J Neurol Sci 73:233-244). Polyclonal anti-EHS laminin antibody (Sigma) (1:1000) was used to label basal laminae. […]

CSPG side chain degradation (neoepitope labeling) (CSPG [2]): effectively degraded
Substance: chondroitinase ABC
CSPG degradation in extracellular matrix around the injection site (CSPG [1]): substantially, if not completely, degraded CSPG
growth-promoting properties of human nerves (chick DRG neurons): increased
